Reference: patent US20260232767A1, “INTERLEUKIN-23 RECEPTOR ANTAGONIST PEPTIDES FOR USE IN THE TREATMENT OF PSORIASIS” (Janssen Pharmaceutica NV, priority 2023, published 2026)

System: subjects with moderate-to-severe plaque psoriasis
Assay: IGA score, Example 2
Assay type: in vivo, human
From the text: Described below is a multicenter, long-term extension (LTE), double-blind, dose-ranging, parallel group interventional study in participants from Example 1 to evaluate the long-term efficacy and safety of the hydrochloride salt of the compound of Formula (I) for the treatment of moderate-to-severe plaque psoriasis. Patients from Example 1 continued to receive the same dose of the compound of Formula (I) for an additional 36-week treatment period with a 4-week safety follow up period after the last administration of the compound of Formula (I). Patients randomized to placebo in Example 1 received the compound of Formula (I) at a dose of 100 mg QD starting at Week 16 of Example 1 (FIG. 21).
Secondary endpoints included additional change from baseline of Example 1 in PASI, IGA, and PSSD at Week 52, including the proportions of subjects that achieved PAST 90, PAST 100, an IGA score of cleared (0) or minimal (1), PSSD symptoms score=0, and PSSD signs score=0.

[1] = Week 20, Placebo → 100 mg QD, N=35
[2] = Week 24, Placebo → 100 mg QD, N=35
[3] = Week 28, Placebo → 100 mg QD, N=35
[4] = Week 32, Placebo → 100 mg QD, N=35
[5] = Week 40, Placebo → 100 mg QD, N=35
[6] = Week 52, Placebo → 100 mg QD, N=35

## CC(=O)NCCCC[C@@H]1NC(=O)[C@H](Cc2c[nH]c3c(C)cccc23)NC(=O)[C@H]([C@@H](C)O)NC(=O)[C@H](CC(N)=O)NC(=O)[C@@H](NC(C)=O)C(C)(C)SSC(C)(C)[C@@H](C(=O)N[C@@H](Cc2ccc(OCCN)cc2)C(=O)N[C@@H](Cc2ccc3ccccc3c2)C(=O)NC2(C(=O)N[C@@H](CCC(=O)O)C(=O)N[C@@H](CC(N)=O)C(=O)N[C@@H](Cc3cccnc3)C(=O)N(C)CC(N)=O)CCOCC2)NC1=O [IL-23 receptor antagonist peptide, Ac-[Pen]*-N-T-[W(7-Me)]-[Lys(Ac)]-[Pen]*-Phe[4-(2-aminoethoxy)]-[2-Nal]-[THP]-E-N-[3-Pal]-Sarc-NH2 (*[Pen]-[Pen]* formdisulfidebond)]
Week 20, 100 mg QD, N=43
  IGA Score ≤2 (‘Mild’or better), subjects (%): (72.1%)
[1]
  IGA Score = 0 (‘Cleared’) or 1 (‘Minimal’), subjects (%): (28.6%)
  IGA Score = 0 (‘Cleared’), subjects (%): (5.7%)
  IGA Score ≤2 (‘Mild’or better), subjects (%): (71.4%)
Week 24, 25 mg BID, N=41
  IGA Score = 0 (‘Cleared’) or 1 (‘Minimal’), subjects (%): (39.0%)
  IGA Score = 0 (‘Cleared’), subjects (%): (19.5%)
  IGA Score ≤2 (‘Mild’or better), subjects (%): (75.6%)
Week 24, 25 mg QD, N=43
  IGA Score = 0 (‘Cleared’) or 1 (‘Minimal’), subjects (%): (37.2%)
  IGA Score = 0 (‘Cleared’), subjects (%): (16.3%)
  IGA Score ≤2 (‘Mild’or better), subjects (%): (67.4%)
Week 24, 50 mg QD, N=43
  IGA Score = 0 (‘Cleared’) or 1 (‘Minimal’), subjects (%): (60.5%)
  IGA Score = 0 (‘Cleared’), subjects (%): (32.6%)
  IGA Score ≤2 (‘Mild’or better), subjects (%): (81.4%)
Week 24, 100 mg BID, N=42
  IGA Score = 0 (‘Cleared’) or 1 (‘Minimal’), subjects (%): (73.8%)
  IGA Score = 0 (‘Cleared’), subjects (%): (38.1%)
  IGA Score ≤2 (‘Mild’or better), subjects (%): (78.6%)
Week 24, 100 mg QD, N=43
  IGA Score = 0 (‘Cleared’) or 1 (‘Minimal’), subjects (%): (65.1%)
  IGA Score = 0 (‘Cleared’), subjects (%): (23.3%)
  IGA Score ≤2 (‘Mild’or better), subjects (%): (76.7%)
[2]
  IGA Score = 0 (‘Cleared’) or 1 (‘Minimal’), subjects (%): (54.3%)
  IGA Score = 0 (‘Cleared’), subjects (%): (14.3%)
  IGA Score ≤2 (‘Mild’or better), subjects (%): (85.7%)
Week 28, 25 mg BID, N=41
  IGA Score = 0 (‘Cleared’) or 1 (‘Minimal’), subjects (%): (41.5%)
  IGA Score = 0 (‘Cleared’), subjects (%): (19.5%)
  IGA Score ≤2 (‘Mild’or better), subjects (%): (73.2%)
Week 28, 25 mg QD, N=43
  IGA Score = 0 (‘Cleared’) or 1 (‘Minimal’), subjects (%): (37.2%)
  IGA Score = 0 (‘Cleared’), subjects (%): (18.6%)
  IGA Score ≤2 (‘Mild’or better), subjects (%): (65.1%)
Week 28, 50 mg QD, N=43
  IGA Score = 0 (‘Cleared’) or 1 (‘Minimal’), subjects (%): (62.8%)
  IGA Score = 0 (‘Cleared’), subjects (%): (16.3%)
  IGA Score ≤2 (‘Mild’or better), subjects (%): (76.7%)
Week 28, 100 mg BID, N=42
  IGA Score = 0 (‘Cleared’) or 1 (‘Minimal’), subjects (%): (64.3%)
  IGA Score = 0 (‘Cleared’), subjects (%): (42.9%)
  IGA Score ≤2 (‘Mild’or better), subjects (%): (78.6%)
Week 28, 100 mg QD, N=43
  IGA Score = 0 (‘Cleared’) or 1 (‘Minimal’), subjects (%): (62.8%)
  IGA Score = 0 (‘Cleared’), subjects (%): (25.6%)
  IGA Score ≤2 (‘Mild’or better), subjects (%): (74.4%)
[3]
  IGA Score = 0 (‘Cleared’) or 1 (‘Minimal’), subjects (%): (60.0%)
  IGA Score = 0 (‘Cleared’), subjects (%): (17.1%)
  IGA Score ≤2 (‘Mild’or better), subjects (%): (85.7%)
Week 32, 25 mg BID, N=41
  IGA Score = 0 (‘Cleared’) or 1 (‘Minimal’), subjects (%): (46.3%)
  IGA Score = 0 (‘Cleared’), subjects (%): (22.0%)
  IGA Score ≤2 (‘Mild’or better), subjects (%): (73.2%)
Week 32, 25 mg QD, N=43
  IGA Score = 0 (‘Cleared’) or 1 (‘Minimal’), subjects (%): (39.5%)
  IGA Score = 0 (‘Cleared’), subjects (%): (18.6%)
  IGA Score ≤2 (‘Mild’or better), subjects (%): (60.5%)
Week 32, 50 mg QD, N=43
  IGA Score = 0 (‘Cleared’) or 1 (‘Minimal’), subjects (%): (58.1%)
  IGA Score = 0 (‘Cleared’), subjects (%): (30.2%)
  IGA Score ≤2 (‘Mild’or better), subjects (%): (79.1%)
Week 32, 100 mg BID, N=42
  IGA Score = 0 (‘Cleared’) or 1 (‘Minimal’), subjects (%): (66.7%)
  IGA Score = 0 (‘Cleared’), subjects (%): (40.5%)
  IGA Score ≤2 (‘Mild’or better), subjects (%): (78.6%)
Week 32, 100 mg QD, N=43
  IGA Score = 0 (‘Cleared’) or 1 (‘Minimal’), subjects (%): (67.4%)
  IGA Score = 0 (‘Cleared’), subjects (%): (25.6%)
  IGA Score ≤2 (‘Mild’or better), subjects (%): (76.7%)
[4]
  IGA Score = 0 (‘Cleared’) or 1 (‘Minimal’), subjects (%): (65.7%)
  IGA Score = 0 (‘Cleared’), subjects (%): (20.0%)
  IGA Score ≤2 (‘Mild’or better), subjects (%): (80.0%)
Week 40, 25 mg BID, N=41
  IGA Score = 0 (‘Cleared’) or 1 (‘Minimal’), subjects (%): (31.7%)
  IGA Score = 0 (‘Cleared’), subjects (%): (17.1%)
  IGA Score ≤2 (‘Mild’or better), subjects (%): (68.3%)
Week 40, 25 mg QD, N=43
  IGA Score = 0 (‘Cleared’) or 1 (‘Minimal’), subjects (%): (41.9%)
  IGA Score = 0 (‘Cleared’), subjects (%): (11.6%)
  IGA Score ≤2 (‘Mild’or better), subjects (%): (67.4%)
Week 40, 50 mg QD, N=43
  IGA Score = 0 (‘Cleared’) or 1 (‘Minimal’), subjects (%): (58.1%)
  IGA Score = 0 (‘Cleared’), subjects (%): (23.3%)
  IGA Score ≤2 (‘Mild’or better), subjects (%): (79.1%)
Week 40, 100 mg BID, N=42
  IGA Score = 0 (‘Cleared’) or 1 (‘Minimal’), subjects (%): (66.7%)
  IGA Score = 0 (‘Cleared’), subjects (%): (40.5%)
  IGA Score ≤2 (‘Mild’or better), subjects (%): (78.6%)
Week 40, 100 mg QD, N=43
  IGA Score = 0 (‘Cleared’) or 1 (‘Minimal’), subjects (%): (65.1%)
  IGA Score = 0 (‘Cleared’), subjects (%): (27.9%)
  IGA Score ≤2 (‘Mild’or better), subjects (%): (69.8%)
[5]
  IGA Score = 0 (‘Cleared’) or 1 (‘Minimal’), subjects (%): (57.1%)
  IGA Score = 0 (‘Cleared’), subjects (%): (31.4%)
  IGA Score ≤2 (‘Mild’or better), subjects (%): (74.3%)
Week 52, 25 mg BID, N=41
  IGA Score = 0 (‘Cleared’) or 1 (‘Minimal’), subjects (%): (46.3%)
  IGA Score = 0 (‘Cleared’), subjects (%): (19.5%)
  IGA Score ≤2 (‘Mild’or better), subjects (%): (63.4%)
Week 52, 25 mg QD, N=43
  IGA Score = 0 (‘Cleared’) or 1 (‘Minimal’), subjects (%): (37.2%)
  IGA Score = 0 (‘Cleared’), subjects (%): (14.0%)
  IGA Score ≤2 (‘Mild’or better), subjects (%): (55.8%)
Week 52, 50 mg QD, N=43
  IGA Score = 0 (‘Cleared’) or 1 (‘Minimal’), subjects (%): (60.5%)
  IGA Score = 0 (‘Cleared’), subjects (%): (23.3%)
  IGA Score ≤2 (‘Mild’or better), subjects (%): (79.1%)
Week 52, 100 mg BID, N=42
  IGA Score = 0 (‘Cleared’) or 1 (‘Minimal’), subjects (%): (73.8%)
  IGA Score = 0 (‘Cleared’), subjects (%): (42.9%)
  IGA Score ≤2 (‘Mild’or better), subjects (%): (76.2%)
Week 52, 100 mg QD, N=43
  IGA Score = 0 (‘Cleared’) or 1 (‘Minimal’), subjects (%): (60.5%)
  IGA Score = 0 (‘Cleared’), subjects (%): (30.2%)
  IGA Score ≤2 (‘Mild’or better), subjects (%): (67.4%)
[6]
  IGA Score = 0 (‘Cleared’) or 1 (‘Minimal’), subjects (%): (65.7%)
  IGA Score = 0 (‘Cleared’), subjects (%): (31.4%)
  IGA Score ≤2 (‘Mild’or better), subjects (%): (77.1%)
